These results are taken from patent US12441691B2 (Cytokinetics, Inc., priority 2020, dated 2025).

Data set [1] has as its system rabbit skeletal myofibrils (fast skeletal myofibrils). Put plainly: Activation of fast skeletal myofibrils (PUMA assay, AC1.4). It counts as biochemical. The note with it: calcium at pCa25, AC1.4 = concentration at which the compound increased the enzymatic activity. In short, it runs like this:
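In 12 mM PIPES pH 6.8 with 2 mM MgCl2 and 1 mM DTT, Triton-washed rabbit skeletal myofibrils were run at the pCa25 calcium level. Myosin-made ADP was recycled through a PK/LDH coupled system; NADH loss read at 340 nm.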

Data set [2] relates to ankle plantarflexor muscle. Put plainly: Rat isometric ankle plantarflexor muscle force. It counts as in vivo, Sprague Dawley rats. The conditions noted are these: continuous intravenous infusion over sixty minutes, 30 Hz nerve stimulation, estimated EC50 = concentration at which muscle force is 50% of pre-dose maximum tension. The text has this: Female Sprague Dawley rats were placed under a stable anesthetic plane with inhaled isoflurane (1-5%). One incision was made on the mid-thigh region of the right leg to expose the sciatic nerve. To prevent co-contraction of the ankle dorsiflexors, an additional incision was made lateral to the patella to isolate and sever the peroneal nerve. Rats were then placed on a temperature-maintained in situ muscle analysis rig (Aurora Scientific, Model 806C). The knee was immobilized in a clamp between two sharpened screws and the foot was taped to a footplate attached to a force transducer (Aurora Scientific, Ontario, Canada). Stainless steel needle electrodes (0.10 mm) were hooked around the exposed sciatic nerve. Isometric ankle plantarflexor muscle contractile force was assessed with the ankle joint at 90° flexion. A 30 Hz electrical stimulation (under supramaximal voltage conditions) was applied to the nerve and the resulting muscle force was recorded via a servomotor. A pre-dose 30 Hz force response was established as the baseline force. A pre-dose 150 Hz force response was established as the maximum isometric force. Compounds were formulated in 50% polyethylene glycol (PEG): 16% Cavitron: 10% dimethylacetamide (DMA) and administered by continuous intravenous infusion over a sixty minute period. The muscle force response to compound was measured every two minutes over the dosing period. Data were reported as an estimated EC50 value, which is the concentration at which muscle force is 50% of the pre-dose maximum tension. In Table 10, “Example Compound” refers to the compound labeled with the same number in Table 2.

Data set [3] is described as follows: Thermodynamic aqueous solubility (FaSSIF). It counts as physicochemical. As for the experimental part:
Aqueous solubility was determined by suspending sufficient compound in relevant media to give a maximum final concentration of >10 mg/ml of the parent free-form of the compound. The suspension was equilibrated at 37° C., on a Heidolph plate shaker set to 750 rpm for 24 hours. The pH of the saturated solution was then measured, and the suspension filtered through a glass fibre C filter (particle retention 1.2 μm) and diluted appropriately. Quantitation was by HPLC with reference to a standard solution of approximately 0.15 mg/ml in DMSO. Different volumes of the standard, diluted and undiluted sample solutions were injected. The solubility was calculated using the peak areas determined by integration of the peak found at the same retention time as the principal peak in the standard injection.

Data set [4] is described as follows: Gravimetric vapour sorption (GVS). It counts as physicochemical. The note with it: for GVS mass change / GVS water uptake, mol equivalents of water: between 0 and 90% RH, 25° C.; for XRPD after GVS analysis: form after GVS measurement; for Hygroscopicity by GVS: 0-90% RH. As for the experimental part:
Sorption isotherms were obtained using a SMS DVS Intrinsic moisture sorption analyser, controlled by DVS Intrinsic Control software. The sample temperature was maintained at 25° C. by the instrument controls. The humidity was controlled by mixing streams of dry and wet nitrogen, with a total flow rate of 200 ml/min. The relative humidity was measured by a calibrated Rotronic probe (dynamic range of 1.0-100% RH), located near the sample. The weight change, (mass relaxation) of the sample as a function of % RH was constantly monitored by a microbalance (accuracy ±0.005 mg).
Typically, 5-30 mg of sample was placed in a tared mesh stainless steel basket under ambient conditions. The sample was loaded and unloaded at 40% RH and 25° C. (typical room conditions). A moisture sorption isotherm was performed as outlined below (2 scans per complete cycle). The standard isotherm was performed at 25° C. at 10% RH intervals over a 0-90% RH range. Typically, a double cycle (4 scans) was carried out. Data analysis was carried out within Microsoft Excel using the DVS Analysis Suite.
The sample was recovered after completion of the isotherm and re-analysed by XRPD.

Data set [5] can be described thus: Water determination by Karl Fischer titration (KF). It is filed as physicochemical. As to the method: The water content of each sample was measured on a Metrohm 874 Oven Sample Processor at 150° C. with 851 Titrano Coulometer using Hydranal Coulomat AG oven reagent and nitrogen purge. Weighed solid samples were introduced into a sealed sample vial. Approximately 10 mg of sample was used per titration and duplicate determinations were made. […] Data collection and analysis were performed using Tiamo software.

Data set [6] can be described thus: Static storage stability of crystalline form by XRPD. It counts as physicochemical.
[7] abbreviates: 40° C./75% RH, 7 days (one week).

Values after ≈ are worked out from the molar mass of the structure shown.

On to `CC[C@H](C)[C@H]1C(=O)Nc2ccc(F)cc2CN1C(N)=O` [Compound 9, (S)-3-((S)-sec-Butyl)-7-fluoro-2-oxo-1,2,3,5-tetrahydro-4H-benzo[e][1,4]diazepine-4-carboxamide], for which, in data set [1], the AC1.4 is 0.28 µM. In data set [2], the EC50 (as a rule, the midpoint of the concentration-response curve) was 19.1 µM.
For `CC[C@H](C)[C@H]1C(=O)Nc2cncc(F)c2CN1C(N)=O` [Compound 10, (S)-3-((S)-sec-Butyl)-6-fluoro-2-oxo-1,2,3,5-tetrahydro-4H-pyrido[3,4-e][1,4]diazepine-4-carboxamide], in that order: 0.71 µM and 18.8 µM.
For `CC[C@H](C)[C@H]1C(=O)Nc2cnccc2CN1C(N)=O` [Compound 12, (S)-3-((S)-sec-butyl)-2-oxo-1,2,3,5-tetrahydro-4H-pyrido[3,4-e][1,4]diazepine-4-carboxamide], in that order: 0.84 µM and 38.7 µM.
With `CC[C@H](C)[C@H]1C(=O)Nc2ccccc2CN1C(=O)N1CC(O)C1` [Compound 32, (S)-3-((S)-sec-Butyl)-4-(3-hydroxyazetidine-1-carbonyl)-1,3,4,5-tetrahydro-2H-benzo[e][1,4]diazepin-2-one], the AC1.4 in data set [1] came to 0.13 µM. The EC50 in data set [2] was 12.6 µM.
For `CC[C@H](C)[C@H]1C(=O)Nc2ccccc2CN1C(=O)CCO` [Compound 49, (S)-3-((S)-sec-butyl)-4-(3-hydroxypropanoyl)-1,3,4,5-tetrahydro-2H-benzo[e][1,4]diazepin-2-one], in that order: 0.55 µM and 28 µM.
For `CC(C)[C@H]1C(=O)Nc2ccccc2CN1/C(N)=N/C#N` [Compound 64, (S,E)-N′-Cyano-3-isopropyl-2-oxo-1,2,3,5-tetrahydro-4H-benzo[e][1,4]diazepine-4-carboximidamide], in that order: 0.53 µM and 20.1 µM.
On to `CC[C@H](C)[C@H]1C(=O)Nc2cccc(F)c2CN1C(N)=O` [Compound 65, (S)-3-((S)-sec-butyl)-6-fluoro-2-oxo-1,2,3,5-tetrahydro-4H-benzo[e][1,4]diazepine-4-carboxamide], for which, in data set [1], the AC1.4 was 0.37 µM. For the same compound, the EC50 in data set [2] is 11.3 µM.
For `CC[C@H](C)[C@H]1C(=O)Nc2cnccc2CN1/C(N)=N/C#N` [Compound 82, (S,E)-3-((S)-sec-butyl)-N′-cyano-2-oxo-1,2,3,5-tetrahydro-4H-pyrido[3,4-e][1,4]diazepine-4-carboximidamide], in that order: 0.24 µM and 21.4 µM.
For `CC[C@H](C)[C@H]1C(=O)Nc2ccccc2CN1C(=O)N[C@H]1CCN(C)C1` [Compound 144, (S)-3-((S)-sec-butyl)-N-((S)-1-methylpyrrolidin-3-yl)-2-oxo-1,2,3,5-tetrahydro-4H-benzo[e][1,4]diazepine-4-carboxamide], in that order: 0.28 µM and 10.5 µM.
For `CC(C)[C@H]1C(=O)Nc2cc(F)ccc2CN1C(N)=O` [Compound 357, (S)-8-fluoro-3-isopropyl-2-oxo-1,2,3,5-tetrahydro-4H-benzo[e][1,4]diazepine-4-carboxamide], in that order: 1.69 µM and 58.3 µM.
On to `CC[C@H](C)[C@H]1C(=O)Nc2cncc(F)c2CN1C(N)=O` [Crystalline Form I, (S)-3-((S)-sec-Butyl)-6-fluoro-2-oxo-1,2,3,5-tetrahydro-4H-pyrido[3,4-e][1,4]diazepine-4-carboxamide], for which, in data set [3] (solid residues after thermodynamic solubility in FaSSIF (37° C.)), the “XRPD of solid residues” value is “Form I”. The solubility (thermodynamic) – broadly, the concentration in solution at equilibrium with solid – at 24 h in data set [3] (thermodynamic from solid, FaSSIF, 37° C., equilibrated 24 hours) was determined as 460 µg/mL (≈ 1640 µM). Further, in data set [4], the GVS mass change is 0.29% Mass change between 0 and 90% RH; the “GVS water uptake, mol equivalents of water” value is given as 0.04 mol. equivalents water; the “XRPD after GVS analysis” value is reported as “Unchanged”. This compound returned a KF water content in data set [5] of 0.1% water.
As for `CC[C@H](C)[C@H]1C(=O)Nc2cncc(F)c2CN1C(N)=O` [Form II], in data set [4], the “Hygroscopicity by GVS” value was “slightly hygroscopic”, the GVS mass change is recorded as 0.23% and the “XRPD after GVS analysis” value is on record as “unchanged”. Further, the “Static storage, XRPD” value in data set [6] (setting [7]) is recorded as “no changes”.
Turning to `CC[C@H](C)[C@H]1C(=O)Nc2cncc(F)c2CN1C(N)=O` [Form I], in data set [4], the “Hygroscopicity by GVS” value is on record as “slightly hygroscopic”; the GVS mass change is given as 0.29%; the “GVS water uptake, mol equivalents of water” value worked out at 0.04 mol. equivalents water; the “XRPD after GVS analysis” value was “unchanged”. Further, the “Static storage, XRPD” value in data set [6] (25° C./97% RH (one week for Form I)) was “unchanged”. For the same compound, the “Static storage, XRPD” value in data set [6] (setting [7]) is reported as “unchanged”. The compound further gave a KF water content in data set [5] of 0.1%.
